Data from paper PMC7782499, “Progerinin, an optimized progerin-lamin A binding inhibitor, ameliorates premature senescence phenotypes of Hutchinson-Gilford progeria syndrome” (Communications Biology, 2021).

Experiment: Maximum tolerated dose study in Beagle dogs, escalated-dose oral administration
Type: in vivo
Details: both sexes, beagle, dog, in vivo; oral gavage, dose escalation
Source text: The protocol and procedures involving the care and use of animals in this study was reviewed and approved by IACUC of QuBEST BIO prior to conduct (Approval no.: QBSIACUC-A18142). During the study, the care and use of animals will be conducted in accordance with all applicable guidelines of Animal Welfare Act. Non-naive one male and one female Beagle dogs (~16–24 months old, original supplier: ORIENTBIO Co., Ltd, Korea) were selected from the stock colony and assigned for the study. The route of administration was the oral (by gavage) route, which is the anticipated clinical route of exposure. Test article formulations were administered once via oral gavage. The day of 1st dosing was designated as Day 1. Each dose was administered via a syringe attached with 12-french feeding tube. A dose volume of 5 ml/kg was used and individual dose volumes were based on the most recent body weight. Each dose was followed by a distilled water of 5 ml. Each animal was observed twice daily (a.m. and p.m.) for mortality and moribundity; findings were recorded as they were observed. Cage side observations were made for each animal once daily; abnormal findings were recorded. […] Body weights were measured prior to each dosing. […] Prior to dosing and ~24 h post each dose, blood was collected as the same method and frequency with hematology analysis using no anticoagulant and then serum was separated by centrifugation and stored at freezer until analyze (AU 400, Olympus, Japan; […] 744 Na^+/K^+/[…] Analyzer, SIEMENS, Germany). In terminal procedures, all surviving animals were returned to the stock colony without necropsy. Toxicity studies were performed by QuBEST BIO Co., Ltd (Yongin, Korea).
The objective of this study was to determine the maximum tolerated dose (MTD) of SLC-D011 following dose escalation by oral gavage to Beagle dogs.
The study group was detailed in Text Table 1.
Text Table 1. Study Group
Dose Level Dose Conc. No. of Animals†
Group Treatment (mg/kg) (mg/mL)
†: Animals were re-used for each dose with at least 4-day wash-out period.
The following parameters were evaluated in this study: mortality, clinical signs, body weights and clinical pathology parameters (hematology and serum biochemistry).
Mortality and Clinical Observations
All animals survived until end of the study. Test article-related clinical observations were limited to oily soft stool in the 100 mg/kg/day group animals and vomitus (frothy) and soft sto ol in the 400 […]
Clinical Pathology Parameters (Hematology and Serum Chemistry) […]
the 100 and 400 mg/kg group animals on approximately 24 hours post each dose, compared to pre […]
Based on the results of this study, the maximum tolerated dose (MTD) of SLC-D011 was considered to […]
Test article formulations were administered once via oral gavage. The day of 1st dosing was designated […]
Each dose was administered via a syringe attached with 12-french feeding tube. A dose volume of 5 mL/kg was used and individual dose volumes were based on the most recent body weight. Each dose was followed by a distilled water of 5 mL. […]
Each animal was observed twice daily (a.m. and p.m.) for mortality and moribundity; findings were recorded as they were observed. Cage side observations were made for each animal once daily; abnormal findings were recorded. Detailed observations were made for each animal once prior to treatment; abnormal findings (ranked/graded, if appropriate) or an indication the animal appears […]
Body weights were measured prior to each dosing. […]
Prior to each dosing and approximately 24 hours post each dose, blood samples for hematology examination were collected from the via cephalic vein into tubes with K2EDTA anticoagulant and […]
Parameters Unit Measurement Method
ⓐ RBC (Red blood cell count) 106/μL Electric Impedance […]
ⓒ HGB (Hemoglobin conc.) g/dL Cyanmethemoglobin […]

CC1(C)Oc2cc3oc(=O)ccc3cc2C[C@@H]1OC/C=C/c1ccccc1 [SLC-D011]
MTD: > 400 mg/kg
